According to ChEMBL document CHEMBL6087462, “Cuminaldehyde Potentiates Antiproteolytic Peptide Efficacy via Parallel Pathways of Enhanced Inner Membrane-Damaging Activity and Inhibition of Bacterial Energy Metabolism” (J Med Chem, 2025):

What was measured:
Escherichia coli [1] = assay: Synergistic antimicrobial activity against Escherichia coli K99 assessed as fractional inhibitory concentration index in presence of cuminaldehyde by checkerboard broth microdilution assay; type: functional
Staphylococcus aureus [2] = assay: Synergistic antimicrobial activity against Staphylococcus aureus 25923 assessed as fractional inhibitory concentration index in presence of citral by checkerboard broth microdilution assay; type: functional
Salmonella typhimurium [3] = assay: Antimicrobial activity against Salmonella typhimurium ATCC 14028 assessed as reduction in microbial growth in presence of cuminaldehyde by CLSI based broth microdilution method; type: functional, Salmonella enterica subsp. enterica serovar Typhimurium; settings: Salmonella enterica
[4] = Synergistic antimicrobial activity against Salmonella enterica subsp. enterica serovar Pullorum 7913 assessed as fractional inhibitory concentration index in presence of citronellal by checkerboard broth microdilution assay; type: functional
Staphylococcus aureus [5] = assay: Synergistic antimicrobial activity against Staphylococcus aureus 25923 assessed as fractional inhibitory concentration index in presence of thymol by checkerboard broth microdilution assay; type: functional
Staphylococcus aureus [6] = assay: Synergistic antimicrobial activity against Staphylococcus aureus 43300 assessed as fractional inhibitory concentration by checkerboard broth microdilution assay; type: functional
Pseudomonas aeruginosa = assay: Synergistic antimicrobial activity against Pseudomonas aeruginosa 27853 assessed as fractional inhibitory concentration index in presence of citral by checkerboard broth microdilution assay; type: functional
Salmonella typhimurium [7] = assay: Antimicrobial activity against Salmonella typhimurium ATCC 14028 assessed as reduction in microbial growth by CLSI based broth microdilution method; type: functional, Salmonella enterica subsp. enterica serovar Typhimurium; settings: Salmonella enterica
Escherichia coli [8] = assay: Antimicrobial activity against Escherichia coli 078 assessed as reduction in microbial growth in presence of cuminaldehyde by CLSI based broth microdilution method; type: functional; settings: 78
Enterococcus faecalis = assay: Synergistic antimicrobial activity against Enterococcus faecalis 29212 assessed as fractional inhibitory concentration index in presence of thymol by checkerboard broth microdilution assay; type: functional

CC[C@H](C)[C@H](NC(=O)[C@@H](NC(=O)[C@@H](CCCNC(=N)N)NC(=O)[C@H](C)NC(=O)[C@H](C)NC(=O)[C@@H](N)Cc1cccc2ccccc12)[C@@H](C)CC)C(=O)N[C@@H](CC(C)C)C(=O)N[C@H](CCCNC(=N)N)C(=O)N[C@@H](Cc1c[nH]c2ccccc12)C(=O)N[C@H](CCCNC(=N)N)C(=O)N[C@@H](Cc1ccccc1)C(=O)N[C@@H](CCCNC(=N)N)C(=O)O
fractional inhibitory concentration index (FICI) (Escherichia coli [1]): 0.375
fractional inhibitory concentration index (FICI) (Staphylococcus aureus [2]): 0.25
MIC (Salmonella typhimurium [3]): 0.5 µg/mL
fractional inhibitory concentration index (FICI) [4]: 0.25
fractional inhibitory concentration index (FICI) (Staphylococcus aureus [5]): 0.25
FIC (Staphylococcus aureus [6]): 0.25
fractional inhibitory concentration index (FICI) (Pseudomonas aeruginosa): 0.141
MIC (Salmonella typhimurium [7]): 4 µg/mL
MIC (Escherichia coli [8]): 2 µg/mL
fractional inhibitory concentration index (FICI) (Enterococcus faecalis): 0.75
